{"source": "paper PMC12748989", "about": "(Nature Communications, 2025)", "key": {"[1]": {"tested_on": "PBMC", "details": "12.5 µM"}, "[2]": {"tested_on": "MDA-MB-231 cells"}}}
{"compound": "CC[C@H](C)[C@H](N)C(=O)N[C@@H](CC(N)=O)C(=O)N[C@@H](CC(C)C)C(=O)N[C@@H](CCCCN)C(=O)N[C@@H](C)C(=O)N[C@@H](CC(C)C)C(=O)N[C@@H](C)C(=O)N[C@@H](C)C(=O)N[C@@H](Cc1c[nH]c2ccccc12)C(=O)N[C@@H](C)C(=O)N[C@@H](CCCCN)C(=O)N[C@@H](CCCCN)C(=O)N[C@H](C(=O)N[C@@H](CC(C)C)C(N)=O)[C@@H](C)CC", "note": "[W9]", "values": [{"measurement": "Average (percentage cell inhibition), Mastoparan PBMC", "setting": "[1]", "value": 6.531, "unit": "%"}, {"measurement": "Average (percentage cell inhibition), Dmastoparan MDA-MB231 12.5uM", "setting": "[2]", "value": 26.5648, "unit": "%"}]}
{"compound": "CC[C@H](C)[C@H](N)C(=O)N[C@@H](CCCNC(=N)N)C(=O)N[C@@H](CC(C)C)C(=O)N[C@@H](CCCCN)C(=O)N[C@@H](C)C(=O)N[C@@H](CC(C)C)C(=O)N[C@@H](C)C(=O)N[C@@H](C)C(=O)N[C@@H](CC(C)C)C(=O)N[C@@H](C)C(=O)N[C@@H](CCCCN)C(=O)N[C@@H](CCCCN)C(=O)N[C@H](C(=O)N[C@@H](CC(C)C)C(N)=O)[C@@H](C)CC", "note": "[R2]", "values": [{"measurement": "Average (percentage cell inhibition), Mastoparan PBMC", "setting": "[1]", "value": 6.823, "unit": "%"}, {"measurement": "Average (percentage cell inhibition), Dmastoparan MDA-MB231 12.5uM", "setting": "[2]", "value": 40.227, "unit": "%"}]}
{"compound": "CC[C@H](C)[C@H](NC(=O)[C@H](CCCCN)NC(=O)[C@H](CCCCN)NC(=O)[C@H](C)NC(=O)[C@H](CC(C)C)NC(=O)[C@H](C)NC(=O)[C@H](C)NC(=O)[C@H](CC(C)C)NC(=O)[C@H](C)NC(=O)[C@H](CCCCN)NC(=O)[C@H](CC(C)C)NC(=O)[C@H](CC(N)=O)NC(=O)[C@@H](N)Cc1c[nH]cn1)C(=O)N[C@@H](CC(C)C)C(N)=O", "note": "[H1]", "values": [{"measurement": "Average (percentage cell inhibition), Mastoparan PBMC", "setting": "[1]", "value": 0.9359, "unit": "%"}, {"measurement": "Average (percentage cell inhibition), Dmastoparan MDA-MB231 12.5uM", "setting": "[2]", "value": 37.0221, "unit": "%"}]}
{"compound": "CC[C@H](C)[C@H](NC(=O)[C@H](CCCCN)NC(=O)[C@H](CCCCN)NC(=O)[C@H](C)NC(=O)[C@H](CC(C)C)NC(=O)[C@H](C)NC(=O)[C@H](C)NC(=O)[C@H](CC(C)C)NC(=O)[C@H](C)NC(=O)[C@H](CCCCN)NC(=O)[C@H](CC(C)C)NC(=O)[C@H](CC(N)=O)NC(=O)[C@@H](N)CC(N)=O)C(=O)N[C@@H](CC(C)C)C(N)=O", "note": "[N1]", "values": [{"measurement": "Average (percentage cell inhibition), Mastoparan PBMC", "setting": "[1]", "value": 8.003, "unit": "%"}, {"measurement": "Average (percentage cell inhibition), Dmastoparan MDA-MB231 12.5uM", "setting": "[2]", "value": 25.1532, "unit": "%"}]}
{"compound": "CC[C@H](C)[C@H](N)C(=O)N[C@@H](CC(N)=O)C(=O)N[C@@H](CC(C)C)C(=O)N[C@@H](CCCCN)C(=O)N[C@@H](C)C(=O)N[C@@H](CC(C)C)C(=O)N[C@@H](C)C(=O)N[C@@H](C)C(=O)N[C@@H](CC(C)C)C(=O)N[C@@H](C)C(=O)N[C@@H](CCCCN)C(=O)N[C@@H](CCCCN)C(=O)N[C@H](C(=O)N[C@@H](CCC(=O)O)C(N)=O)[C@@H](C)CC", "note": "[E14]", "values": [{"measurement": "Average (percentage cell inhibition), Mastoparan PBMC", "setting": "[1]", "value": 2.998, "unit": "%"}, {"measurement": "Average (percentage cell inhibition), Dmastoparan MDA-MB231 12.5uM", "setting": "[2]", "value": 33.8434, "unit": "%"}]}
{"compound": "CC[C@H](C)[C@H](N)C(=O)N[C@@H](CC(N)=O)C(=O)N[C@@H](CC(C)C)C(=O)N[C@@H](Cc1c[nH]c2ccccc12)C(=O)N[C@@H](C)C(=O)N[C@@H](CC(C)C)C(=O)N[C@@H](C)C(=O)N[C@@H](C)C(=O)N[C@@H](CC(C)C)C(=O)N[C@@H](C)C(=O)N[C@@H](CCCCN)C(=O)N[C@@H](CCCCN)C(=O)N[C@H](C(=O)N[C@@H](CC(C)C)C(N)=O)[C@@H](C)CC", "note": "[W4]", "values": [{"measurement": "Average (percentage cell inhibition), Mastoparan PBMC", "setting": "[1]", "value": 30.4839, "unit": "%"}, {"measurement": "Average (percentage cell inhibition), Dmastoparan MDA-MB231 12.5uM", "setting": "[2]", "value": 50.1282, "unit": "%"}]}
{"compound": "CC[C@H](C)[C@H](N)C(=O)N[C@@H](CC(N)=O)C(=O)N[C@@H](CC(C)C)C(=O)N[C@@H](Cc1c[nH]cn1)C(=O)N[C@@H](C)C(=O)N[C@@H](CC(C)C)C(=O)N[C@@H](C)C(=O)N[C@@H](C)C(=O)N[C@@H](CC(C)C)C(=O)N[C@@H](C)C(=O)N[C@@H](CCCCN)C(=O)N[C@@H](CCCCN)C(=O)N[C@H](C(=O)N[C@@H](CC(C)C)C(N)=O)[C@@H](C)CC", "note": "[H4]", "values": [{"measurement": "Average (percentage cell inhibition), Mastoparan PBMC", "setting": "[1]", "value": -2.6725, "unit": "%"}, {"measurement": "Average (percentage cell inhibition), Dmastoparan MDA-MB231 12.5uM", "setting": "[2]", "value": 21.387, "unit": "%"}]}
{"compound": "CC[C@H](C)[C@H](N)C(=O)N[C@@H](CC(N)=O)C(=O)N[C@@H](CC(C)C)C(=O)N[C@@H](CC(C)C)C(=O)N[C@@H](C)C(=O)N[C@@H](CC(C)C)C(=O)N[C@@H](C)C(=O)N[C@@H](C)C(=O)N[C@@H](CC(C)C)C(=O)N[C@@H](C)C(=O)N[C@@H](CCCCN)C(=O)N[C@@H](CCCCN)C(=O)N[C@H](C(=O)N[C@@H](CC(C)C)C(N)=O)[C@@H](C)CC", "note": "[L4]", "values": [{"measurement": "Average (percentage cell inhibition), Mastoparan PBMC", "setting": "[1]", "value": 15.2128, "unit": "%"}, {"measurement": "Average (percentage cell inhibition), Dmastoparan MDA-MB231 12.5uM", "setting": "[2]", "value": 34.0791, "unit": "%"}]}
{"compound": "CC[C@H](C)[C@H](N)C(=O)N[C@@H](CC(N)=O)C(=O)N[C@@H](CC(C)C)C(=O)N[C@@H](CCCCN)C(=O)N[C@@H](C)C(=O)N[C@@H](CC(C)C)C(=O)N[C@@H](C)C(=O)N[C@@H](C)C(=O)N[C@@H](CC(C)C)C(=O)N[C@@H](C)C(=O)N[C@@H](CCCCN)C(=O)N[C@@H](CO)C(=O)N[C@H](C(=O)N[C@@H](CC(C)C)C(N)=O)[C@@H](C)CC", "note": "[S12]", "values": [{"measurement": "Average (percentage cell inhibition), Mastoparan PBMC", "setting": "[1]", "value": 1.96, "unit": "%"}, {"measurement": "Average (percentage cell inhibition), Dmastoparan MDA-MB231 12.5uM", "setting": "[2]", "value": 38.966, "unit": "%"}]}
{"compound": "CC[C@H](C)[C@H](N)C(=O)N[C@@H](CC(N)=O)C(=O)N[C@H](C(=O)N[C@@H](CCCCN)C(=O)N[C@@H](C)C(=O)N[C@@H](CC(C)C)C(=O)N[C@@H](C)C(=O)N[C@@H](C)C(=O)N[C@@H](CC(C)C)C(=O)N[C@@H](C)C(=O)N[C@@H](CCCCN)C(=O)N[C@@H](CCCCN)C(=O)N[C@H](C(=O)N[C@@H](CC(C)C)C(N)=O)[C@@H](C)CC)C(C)C", "note": "[V3]", "values": [{"measurement": "Average (percentage cell inhibition), Mastoparan PBMC", "setting": "[1]", "value": -4.825, "unit": "%"}, {"measurement": "Average (percentage cell inhibition), Dmastoparan MDA-MB231 12.5uM", "setting": "[2]", "value": 35.8976, "unit": "%"}]}
{"compound": "CC[C@H](C)[C@H](N)C(=O)N[C@@H](CC(N)=O)C(=O)N[C@@H](CC(C)C)C(=O)N[C@@H](CCCCN)C(=O)N[C@@H](C)C(=O)N[C@@H](CC(C)C)C(=O)N[C@@H](C)C(=O)N[C@@H](C)C(=O)N[C@@H](CC(C)C)C(=O)N[C@@H](C)C(=O)N[C@H](C(=O)N[C@@H](CCCCN)C(=O)N[C@H](C(=O)N[C@@H](CC(C)C)C(N)=O)[C@@H](C)CC)C(C)C", "note": "[V11]", "values": [{"measurement": "Average (percentage cell inhibition), Mastoparan PBMC", "setting": "[1]", "value": 14.2972, "unit": "%"}, {"measurement": "Average (percentage cell inhibition), Dmastoparan MDA-MB231 12.5uM", "setting": "[2]", "value": 50.781, "unit": "%"}]}
{"compound": "CC[C@H](C)[C@H](N)C(=O)N[C@@H](CC(N)=O)C(=O)N[C@@H](CC(C)C)C(=O)N[C@@H](CCCCN)C(=O)N[C@@H](C)C(=O)N[C@@H](CC(C)C)C(=O)N[C@@H](C)C(=O)NCC(=O)N[C@@H](CC(C)C)C(=O)N[C@@H](C)C(=O)N[C@@H](CCCCN)C(=O)N[C@@H](CCCCN)C(=O)N[C@H](C(=O)N[C@@H](CC(C)C)C(N)=O)[C@@H](C)CC", "note": "[G8]", "values": [{"measurement": "Average (percentage cell inhibition), Mastoparan PBMC", "setting": "[1]", "value": 1.421, "unit": "%"}, {"measurement": "Average (percentage cell inhibition), Dmastoparan MDA-MB231 12.5uM", "setting": "[2]", "value": 28.4057, "unit": "%"}]}
{"compound": "CC[C@H](C)[C@H](N)C(=O)N[C@@H](CC(N)=O)C(=O)N[C@@H](CC(C)C)C(=O)N[C@@H](CCCCN)C(=O)N[C@@H](C)C(=O)N[C@@H](CC(C)C)C(=O)N[C@@H](C)C(=O)N[C@@H](C)C(=O)N[C@@H](CC(C)C)C(=O)N[C@@H](C)C(=O)N[C@@H](CCCCN)C(=O)N[C@@H](CCCCN)C(=O)N[C@H](C(=O)N[C@H](C(N)=O)[C@@H](C)O)[C@@H](C)CC", "note": "[T14]", "values": [{"measurement": "Average (percentage cell inhibition), Mastoparan PBMC", "setting": "[1]", "value": 6.663, "unit": "%"}, {"measurement": "Average (percentage cell inhibition), Dmastoparan MDA-MB231 12.5uM", "setting": "[2]", "value": 36.2451, "unit": "%"}]}
{"compound": "CC[C@H](C)[C@H](N)C(=O)N[C@@H](CC(N)=O)C(=O)N[C@@H](CC(C)C)C(=O)N[C@@H](CCCCN)C(=O)N[C@@H](C)C(=O)N[C@@H](CC(C)C)C(=O)N[C@@H](C)C(=O)N[C@@H](C)C(=O)N1CCC[C@H]1C(=O)N[C@@H](C)C(=O)N[C@@H](CCCCN)C(=O)N[C@@H](CCCCN)C(=O)N[C@H](C(=O)N[C@@H](CC(C)C)C(N)=O)[C@@H](C)CC", "note": "[P9]", "values": [{"measurement": "Average (percentage cell inhibition), Mastoparan PBMC", "setting": "[1]", "value": -6.87, "unit": "%"}, {"measurement": "Average (percentage cell inhibition), Dmastoparan MDA-MB231 12.5uM", "setting": "[2]", "value": 35.5446, "unit": "%"}]}
